The text below walks through data of patent publication US9809625B2, “Immunomodulators” (BRISTOL-MYERS SQUIBB COMPANY, priority 2015, dated 2017).

Bridge positions count the residues as written; N and C are the ends. Square brackets hold non-standard residues; d marks the D form. Peptide text beside a SMILES is read from it. * marks the point of attachment. ξ: configuration not given here. Piperazinyl(4-Ph) = c1ccc(N2CCN(*)CC2)cc1; Hyp = O=C(O)[C@@H]1C[C@@H](O)CN1; ξW = NC(Cc1c[nH]c2ccccc12)C(=O)O; NMeNle = CCCC[C@H](NC)C(=O)O; X7 = CC(C)(C)OC(=O)NCCCCCN*; NMeA = CN[C@@H](C)C(=O)O; Dap = NC[C@H](N)C(=O)O; X10 = c1ccc(OCCN*)cc1; N(Me)nPr = CCCN(C)*; NHCH2cPr = C1CC1CN*; X11 = OC1CCC(N*)CC1; X12 = OCC1CCN(*)CC1; X2 = c1cn(CCCN*)cn1; X9 = OCCN(CCO)CCCN*; OtBu = CC(C)(C)O*; NHAllyl = C=CCN*; βAla = NCCC(=O)O; NHBu = CCCCN*

T1 sequence (Q9NZQ7 with tags, fused parts or gaps): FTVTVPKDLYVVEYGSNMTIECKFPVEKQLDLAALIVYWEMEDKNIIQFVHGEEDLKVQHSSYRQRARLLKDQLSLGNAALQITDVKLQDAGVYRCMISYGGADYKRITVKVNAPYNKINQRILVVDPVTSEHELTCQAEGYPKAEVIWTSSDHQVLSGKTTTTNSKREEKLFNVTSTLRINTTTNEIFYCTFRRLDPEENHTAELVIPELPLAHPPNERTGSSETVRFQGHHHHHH

This assay has as its target T1, PD-1-Ig binding to PD-L1-TVMV-His (PD-L1-His) (Homo sapiens, UniProt Q9NZQ7).
T1 construct: hPDL1(19-239)-TVMV-His; TVMV protease cleavage site (C); made in house; host or cells: HEK293T
Kind of assay: PD-1/PD-L1 Homogenous Time-Resolved Fluorescence (HTRF) binding assay. The following applies: PD-1-Ig (20 nM)/PD-L1-His (10 nM), range classes. From the text:
Methods for Testing the Ability of Macrocyclic Peptides to Compete for the Binding of PD-1 to PD-L1 Using Homogenous Time-Resolved Fluorescence (HTRF) Binding Assays
The ability of the macrocyclic peptides of the present disclosure to bind to PD-L1 was investigated using a PD-1/PD-L1 Homogenous Time-Resolved Fluorescence (HTRF) binding assay.
Homogenous Time-Resolved Fluorescence (HTRF) Assays of Binding of Soluble PD-1 to Soluble PD-L1. Soluble PD-1 and soluble PD-L1 refers to proteins with carboxyl-end truncations that remove the transmembrane-spanning regions and are fused to heterologous sequences, specifically the Fc portion of the human immunoglobuling G sequence (Ig) or the hexahistidine epitope tag (His). All binding studies were performed in an HTRF assay buffer consisting of dPBS supplemented with 0.1% (w/v) bovine serum albumin and 0.05% (v/v) Tween-20. For the PD-1-Ig/PD-L1-His binding assay, inhibitors were pre-incubated with PD-L1-His (10 nM final) for 15 m in 4 μl of assay buffer, followed by addition of PD-1-Ig (20 nM final) in 1 μl of assay buffer and further incubation for 15 m. PD-L1 fusion proteins from either human, cynomologous macaques, mouse, or other species were used. HTRF detection was achieved using europium crypate-labeled anti-Ig monoclonal antibody (1 nM final) and allophycocyanin (APC) labeled anti-His monoclonal antibody (20 nM final). Antibodies were diluted in HTRF detection buffer and 5 μl was dispensed on top of binding reaction. The reaction was allowed to equilibrate for 30 minutes and signal (665 nm/620 nm ratio) was obtained using an EnVision fluorometer. Additional binding assays were established between PD-1-Ig/PD-L2-His (20 and 5 nM, respectively), CD80-His/PD-L1-Ig (100 and 10 nM, respectively) and CD80-His/CTLA4-Ig (10 and 5 nM, respectively). Binding/competition studies between biotinylated Compound No. 71 and human PD-L1-His were performed as follows. Macrocyclic peptide inhibitors were pre-incubated with PD-L1-His (10 nM final) for 60 minutes in 4 μl of assay buffer followed by addition of biotinylated Compound No. 71 (0.5 nM final) in 1 μl of assay buffer. Binding was allowed to equilibrate for 30 minutes followed by addition of europium crypated labeled Streptavidin (2.5 pM final) and APC-labeled anti-His (20 nM final) in 5 μl of HTRF buffer. The reaction was allowed to equilibrate for 30 m and signal (665 nm/620 nm ratio) was obtained using an EnVision fluorometer.
Recombinant Proteins. Carboxyl-truncated human PD-1 (amino acids 25-167) with a C-terminal human Ig epitope tag [hPD-1 (25-167)-3S-IG] and human PD-L1 (amino acids 18-239) with a C-terminal His epitope tag [hPD-L1(19-239)-tobacco vein mottling virus protease cleavage site (TVMV)-His] were expressed in HEK293T cells and purified sequentially by recombinant Protein A affinity chromatography and size exclusion chromatography. Human PD-L2-His (Sino Biologicals), CD80-His (Sino Biologicals), CTLA4-Ig (RnD Systems) were all obtained through commercial sources.
On the technique in general: Time-resolved FRET reads energy transfer from a long-lived donor to a nearby acceptor.
The term IC50 denotes the concentration that gives 50% inhibition. Take `CCCC[C@H]1C(=O)N(C)[C@@H](CCCC)C(=O)N[C@@H](CC(C)C)C(=O)N[C@H](C(=O)NCC(=O)N2CCN(c3ccccc3)CC2)CSCC(=O)N[C@@H](Cc2ccc(O)cc2)C(=O)N(C)[C@@H](C)C(=O)N[C@@H](CC(N)=O)C(=O)N2CCC[C@H]2C(=O)N[C@@H](CN)C(=O)N[C@@H](CC(C)C)C(=O)N2C[C@H](O)C[C@H]2C(=O)N[C@@H](Cc2c[nH]c3ccccc23)C(=O)NCC(=O)NC(Cc2c[nH]c3ccccc23)C(=O)N1C` (stereo partly drawn) [Example 13117] ({CH2CO}-Y[NMeA]NP[Dap]L[Hyp]WG[ξW][NMeNle][NMeNle]LCG-{Piperazinyl(4-Ph)}; thioether N-14): the IC50 was in the range of 4 to 9.9 nM.
Next, `CCCC[C@H]1C(=O)N(C)[C@@H](CCCC)C(=O)N[C@@H](CC(C)C)C(=O)N[C@H](C(=O)NCC(=O)NCCOc2ccccc2)CSCC(=O)N[C@@H](Cc2ccc(O)cc2)C(=O)N(C)[C@@H](C)C(=O)N[C@@H](CC(N)=O)C(=O)N2CCC[C@H]2C(=O)N[C@@H](CN)C(=O)N[C@@H](CC(C)C)C(=O)N2C[C@H](O)C[C@H]2C(=O)N[C@@H](Cc2c[nH]c3ccccc23)C(=O)NCC(=O)N[C@@H](Cc2c[nH]c3ccccc23)C(=O)N1C` [Example 13108] ({CH2CO}-Y[NMeA]NP[Dap]L[Hyp]WGW[NMeNle][NMeNle]LCG-X10; thioether N-14): 10 to 60 nM.
With `CCCC[C@H]1C(=O)N(C)[C@@H](CCCC)C(=O)N[C@@H](CC(C)C)C(=O)N[C@H](C(=O)NCC(=O)NCCCCCNC(=O)OC(C)(C)C)CSCC(=O)N[C@@H](Cc2ccc(O)cc2)C(=O)N(C)[C@@H](C)C(=O)N[C@@H](CC(N)=O)C(=O)N2CCC[C@H]2C(=O)N[C@@H](CN)C(=O)N[C@@H](CC(C)C)C(=O)N2C[C@H](O)C[C@H]2C(=O)N[C@@H](Cc2c[nH]c3ccccc23)C(=O)NCC(=O)NC(Cc2c[nH]c3ccccc23)C(=O)N1C` (stereo partly drawn) [Example 13112] ({CH2CO}-Y[NMeA]NP[Dap]L[Hyp]WG[ξW][NMeNle][NMeNle]LCG-X7; thioether N-14) the figure was 10 to 60 nM.
As to `CCCC[C@H]1C(=O)N(C)[C@@H](CCCC)C(=O)N[C@@H](CC(C)C)C(=O)N[C@H](C(=O)NCC(=O)NCCCN(CCO)CCO)CSCC(=O)N[C@@H](Cc2ccc(O)cc2)C(=O)N(C)[C@@H](C)C(=O)N[C@@H](CC(N)=O)C(=O)N2CCC[C@H]2C(=O)N[C@@H](CN)C(=O)N[C@@H](CC(C)C)C(=O)N2C[C@H](O)C[C@H]2C(=O)N[C@@H](Cc2c[nH]c3ccccc23)C(=O)NCC(=O)N[C@@H](Cc2c[nH]c3ccccc23)C(=O)N1C` [Example 13107] ({CH2CO}-Y[NMeA]NP[Dap]L[Hyp]WGW[NMeNle][NMeNle]LCG-X9; thioether N-14), the IC50 fell in the range of 10 to 60 nM.
For `CCCC[C@H]1C(=O)N(C)[C@@H](CCCC)C(=O)N[C@@H](CC(C)C)C(=O)N[C@H](C(=O)NCC(=O)NCCCn2ccnc2)CSCC(=O)N[C@@H](Cc2ccc(O)cc2)C(=O)N(C)[C@@H](C)C(=O)N[C@@H](CC(N)=O)C(=O)N2CCC[C@H]2C(=O)N[C@@H](CN)C(=O)N[C@@H](CC(C)C)C(=O)N2C[C@H](O)C[C@H]2C(=O)N[C@@H](Cc2c[nH]c3ccccc23)C(=O)NCC(=O)NC(Cc2c[nH]c3ccccc23)C(=O)N1C` (stereo partly drawn) [Example 13099] ({CH2CO}-Y[NMeA]NP[Dap]L[Hyp]WG[ξW][NMeNle][NMeNle]LCG-X2; thioether N-14), the IC50 is 10 to 60 nM.
Next, `CCCC[C@H]1C(=O)N(C)[C@@H](CCCC)C(=O)N[C@@H](CC(C)C)C(=O)N[C@H](C(=O)NCC(=O)N2CCC(CO)CC2)CSCC(=O)N[C@@H](Cc2ccc(O)cc2)C(=O)N(C)[C@@H](C)C(=O)N[C@@H](CC(N)=O)C(=O)N2CCC[C@H]2C(=O)N[C@@H](CN)C(=O)N[C@@H](CC(C)C)C(=O)N2C[C@H](O)C[C@H]2C(=O)N[C@@H](Cc2c[nH]c3ccccc23)C(=O)NCC(=O)NC(Cc2c[nH]c3ccccc23)C(=O)N1C` (stereo partly drawn) [Example 13111] ({CH2CO}-Y[NMeA]NP[Dap]L[Hyp]WG[ξW][NMeNle][NMeNle]LCG-X12; thioether N-14): 10 to 60 nM; `CCCCNC(=O)CNC(=O)[C@@H]1CSCC(=O)N[C@@H](Cc2ccc(O)cc2)C(=O)N(C)[C@@H](C)C(=O)N[C@@H](CC(N)=O)C(=O)N2CCC[C@H]2C(=O)N[C@@H](CN)C(=O)N[C@@H](CC(C)C)C(=O)N2C[C@H](O)C[C@H]2C(=O)N[C@@H](Cc2c[nH]c3ccccc23)C(=O)NCC(=O)NC(Cc2c[nH]c3ccccc23)C(=O)N(C)[C@@H](CCCC)C(=O)N(C)[C@@H](CCCC)C(=O)N[C@@H](CC(C)C)C(=O)N1` (stereo partly drawn) [Example 13100] ({CH2CO}-Y[NMeA]NP[Dap]L[Hyp]WG[ξW][NMeNle][NMeNle]LCG-NHBu; thioether N-14): 10 to 60 nM; `CCCC[C@H]1C(=O)N(C)[C@@H](CCCC)C(=O)N[C@@H](CC(C)C)C(=O)N[C@H](C(=O)NCC(=O)NCC2CC2)CSCC(=O)N[C@@H](Cc2ccc(O)cc2)C(=O)N(C)[C@@H](C)C(=O)N[C@@H](CC(N)=O)C(=O)N2CCC[C@H]2C(=O)N[C@@H](CN)C(=O)N[C@@H](CC(C)C)C(=O)N2C[C@H](O)C[C@H]2C(=O)N[C@@H](Cc2c[nH]c3ccccc23)C(=O)NCC(=O)NC(Cc2c[nH]c3ccccc23)C(=O)N1C` (stereo partly drawn) [Example 13104] ({CH2CO}-Y[NMeA]NP[Dap]L[Hyp]WG[ξW][NMeNle][NMeNle]LCG-NHCH2cPr; thioether N-14): 10 to 60 nM.
On to `CCCC[C@H]1C(=O)N(C)[C@@H](CCCC)C(=O)N[C@@H](CC(C)C)C(=O)N[C@H](C(=O)NCC(=O)NC2CCC(O)CC2)CSCC(=O)N[C@@H](Cc2ccc(O)cc2)C(=O)N(C)[C@@H](C)C(=O)N[C@@H](CC(N)=O)C(=O)N2CCC[C@H]2C(=O)N[C@@H](CN)C(=O)N[C@@H](CC(C)C)C(=O)N2C[C@H](O)C[C@H]2C(=O)N[C@@H](Cc2c[nH]c3ccccc23)C(=O)NCC(=O)NC(Cc2c[nH]c3ccccc23)C(=O)N1C` (stereo partly drawn) [Example 13106] ({CH2CO}-Y[NMeA]NP[Dap]L[Hyp]WG[ξW][NMeNle][NMeNle]LCG-X11; thioether N-14), for which the IC50 is 10 to 60 nM.
Next, `CCCC[C@H]1C(=O)N(C)[C@@H](CCCC)C(=O)N[C@@H](CC(C)C)C(=O)N[C@H](C(=O)NCC(=O)N(C)CCC)CSCC(=O)N[C@@H](Cc2ccc(O)cc2)C(=O)N(C)[C@@H](C)C(=O)N[C@@H](CC(N)=O)C(=O)N2CCC[C@H]2C(=O)N[C@@H](CN)C(=O)N[C@@H](CC(C)C)C(=O)N2C[C@H](O)C[C@H]2C(=O)N[C@@H](Cc2c[nH]c3ccccc23)C(=O)NCC(=O)N[C@@H](Cc2c[nH]c3ccccc23)C(=O)N1C` [Example 13084] ({CH2CO}-Y[NMeA]NP[Dap]L[Hyp]WGW[NMeNle][NMeNle]LCG-{N(Me)nPr}; thioether N-14): 10 to 60 nM.
With `CCCC[C@H]1C(=O)N(C)[C@@H](CCCC)C(=O)N[C@@H](CC(C)C)C(=O)N[C@H](C(=O)NCC(=O)NCCC(=O)OC(C)(C)C)CSCC(=O)N[C@@H](Cc2ccc(O)cc2)C(=O)N(C)[C@@H](C)C(=O)N[C@@H](CC(N)=O)C(=O)N2CCC[C@H]2C(=O)N[C@@H](CN)C(=O)N[C@@H](CC(C)C)C(=O)N2C[C@H](O)C[C@H]2C(=O)N[C@@H](Cc2c[nH]c3ccccc23)C(=O)NCC(=O)NC(Cc2c[nH]c3ccccc23)C(=O)N1C` (stereo partly drawn) [Example 13109] ({CH2CO}-Y[NMeA]NP[Dap]L[Hyp]WG[ξW][NMeNle][NMeNle]LCG[βAla]-OtBu; thioether N-14) the figure was 10 to 60 nM; with `C=CCNC(=O)CNC(=O)[C@@H]1CSCC(=O)N[C@@H](Cc2ccc(O)cc2)C(=O)N(C)[C@@H](C)C(=O)N[C@@H](CC(N)=O)C(=O)N2CCC[C@H]2C(=O)N[C@@H](CN)C(=O)N[C@@H](CC(C)C)C(=O)N2C[C@H](O)C[C@H]2C(=O)N[C@@H](Cc2c[nH]c3ccccc23)C(=O)NCC(=O)NC(Cc2c[nH]c3ccccc23)C(=O)N(C)[C@@H](CCCC)C(=O)N(C)[C@@H](CCCC)C(=O)N[C@@H](CC(C)C)C(=O)N1` (stereo partly drawn) [Example 13097] ({CH2CO}-Y[NMeA]NP[Dap]L[Hyp]WG[ξW][NMeNle][NMeNle]LCG-NHAllyl; thioether N-14), 10 to 60 nM.
